Source: patent US20220395549A1, “COMPOSITIONS OF THE OLEA EUROPAEA V. SYLVESTRIS WITH ANTIMICROBIAL EFFICACY” (TAPROGGE GMBH, priority 2019, published 2022)

Key:
test microorganisms = conditions: cited from earlier work
S. aureus ATCC 6538 = experiment: quantitative suspension assay of mono-substances; format: cell-based, Staphylococcus aureus; conditions: initial cell load 2.0 × 10^5 CFU/ml
Method: A stock solution was prepared by adding 0.1 ml methanol to 10.48 mg of hydroxytyrosol. After dissolving of the compound, the solution was quantitatively transferred into 4.9 ml water for injection (WFI), effective concentration of hydroxytyrosol: 2.0 mg/ml.
Using the stock solution, five (5) concentrations of hydroxytyrosol in a geometric series of 2 mg hydroxytyrosol/ml to 0.125 mg hydroxytyrosol/ml were tested in a quantitative suspension assay.
2 ml of the stock solution and the dilutions (V1 to V4), respectively, and a methanol-solution of 2% as a positive control were inoculated with 0.1 ml of a test suspension of S. aureus ATCC 6538, adjusted to about 2.0×10^5 CFU/0.1 ml, resulting in about 100,000 CFU/ml in the individual assays.
Samples (0.1 ml) were then taken at t 0, 12, 30, and 60 minutes as well as t 24 48, and 72 hours after inoculation and culturing at between 20-25° C., and were diluted with 0.9 ml of 0.9% NaCl solution. The samples were plated on blood agar plates, and incubated up to 5 days at between 30-35° C.
A stock solution was prepared at a concentration of 2 mg/ml of oleocanthal. The compound was dissolved by in ethanol (99.8%) and WFI was added.
Using the stock solution, concentrations of oleocanthal in a geometric series of 1 mg oleocanthal/ml to 0.125 mg oleocanthal/ml were tested in a quantitative suspension assay.
2 ml of the stock solution and the dilutions (V1 to V4), respectively, and a ethanol-solution of 2.85% as a positive control were inoculated with 0.055 ml of a test suspension of S. aureus ATCC 6538, adjusted to about 3.6×10^5 CFU/0.1 ml, resulting in about 99,000 CFU/ml in the individual assays.
A stock solution was prepared at a concentration of 1 mg/ml of oleacin. The compound was dissolved by in ethanol (99.8%) and WFI was added.
Using the stock solution, concentrations of oleacin at 0.25 mg oleacin/ml and 0.125 mg oleacin/ml were tested in a quantitative suspension assay.
2 ml of the stock solution and the dilutions (V1 and V2), respectively, and a ethanol-solution of 0.44% as a positive control were inoculated with 0.055 ml of a test suspension of S. aureus ATCC 6538, adjusted to about 3.5×10^5 CFU/0.1 ml, resulting in about 99,000 CFU/ml in the individual assays.
A stock solution was prepared by adding 0.1 ml chloroform to 25 mg of uvaol. After dissolving of the compound, the solution was quantitatively transferred into 12.4 ml water for injection (WFI), effective concentration of uvaol: 2.0 mg/ml.
Using the stock solution, five (5) concentrations of uvaol in a geometric series of 2 mg uvaol/ml to 0.125 mg uvaol/ml were tested in a quantitative suspension assay.
2 ml of the stock solution and the dilutions (V1 to V4), respectively, and a chloroform-solution of 0.8% as a positive control were inoculated with 0.1 ml of a test suspension of S. aureus ATCC 6538, adjusted to about 2.0×10^5 CFU/0.1 ml, resulting in about 100,000 CFU/ml in the individual assays.
A stock solution was prepared by adding 0.1 ml chloroform to 10.45 mg of erythrodiol. After dissolving of the compound, the solution was quantitatively transferred into 4.9 ml water for injection (WFI), effective concentration of erythrodiol: 2.0 mg/ml.
2 ml of the stock solution and the dilutions (V1 to V4), respectively, and a chloroform-solution of 2% as a positive control were inoculated with 0.1 ml of a test suspension of S. aureus ATCC 6538, adjusted to about 3.6×10^5 CFU/0.1 ml, resulting in about 100.000 CFU/ml in the individual assays.

COc1cc(C(=O)O)cc(OC)c1O [syringic acid]
antimicrobial activities of phenolic compounds (test microorganisms): ineffective

C[C@H]1[C@H](C)CC[C@]2(CO)CC[C@]3(C)C(=CC[C@@H]4[C@@]5(C)CC[C@H](O)C(C)(C)[C@@H]5CC[C@]43C)[C@H]12 [uvaol]
Number of CFUs (S. aureus ATCC 6538; 0.125 Uva/ml, t 0 min): 6.3 × 10^4 CFU/ml | Number of CFUs (S. aureus ATCC 6538; 0.125 Uva/ml, t 12 min): 5.7 × 10^4 CFU/ml | Number of CFUs (S. aureus ATCC 6538; 0.125 Uva/ml, t 30 min): 7.6 × 10^4 CFU/ml | Number of CFUs (S. aureus ATCC 6538; 0.125 Uva/ml, t 60 min): 6.6 × 10^4 CFU/ml | Number of CFUs (S. aureus ATCC 6538; 0.125 Uva/ml, t 24 h): 4.7 × 10^3 CFU/ml | Number of CFUs (S. aureus ATCC 6538; 0.125 Uva/ml, t 48 h): 4.2 × 10^3 CFU/ml | Number of CFUs (S. aureus ATCC 6538; 0.125 Uva/ml, t 72 h): 8.2 × 10^2 CFU/ml | Number of CFUs (S. aureus ATCC 6538; 0.25 Uva/ml, t 0 min): 5.3 × 10^4 CFU/ml | Number of CFUs (S. aureus ATCC 6538; 0.25 Uva/ml, t 12 min): 8.1 × 10^4 CFU/ml | Number of CFUs (S. aureus ATCC 6538; 0.25 Uva/ml, t 30 min): 5.3 × 10^4 CFU/ml | Number of CFUs (S. aureus ATCC 6538; 0.25 Uva/ml, t 60 min): 5.7 × 10^4 CFU/ml | Number of CFUs (S. aureus ATCC 6538; 0.25 Uva/ml, t 24 h): <100 CFU/ml | Number of CFUs (S. aureus ATCC 6538; 0.25 Uva/ml, t 48 h): <100 CFU/ml | Number of CFUs (S. aureus ATCC 6538; 0.25 Uva/ml, t 72 h): <100 CFU/ml | Number of CFUs (S. aureus ATCC 6538; 0.5 Uva/ml, t 0 min): 7.0 × 10^4 CFU/ml | Number of CFUs (S. aureus ATCC 6538; 0.5 Uva/ml, t 12 min): 7.8 × 10^4 CFU/ml | Number of CFUs (S. aureus ATCC 6538; 0.5 Uva/ml, t 30 min): 7.6 × 10^4 CFU/ml | Number of CFUs (S. aureus ATCC 6538; 0.5 Uva/ml, t 60 min): 5.7 × 10^4 CFU/ml | Number of CFUs (S. aureus ATCC 6538; 0.5 Uva/ml, t 24 h): <100 CFU/ml | Number of CFUs (S. aureus ATCC 6538; 0.5 Uva/ml, t 48 h): <100 CFU/ml | Number of CFUs (S. aureus ATCC 6538; 0.5 Uva/ml, t 72 h): <100 CFU/ml | Number of CFUs (S. aureus ATCC 6538; 1.0 Uva/ml, t 0 min): 7.8 × 10^4 CFU/ml | Number of CFUs (S. aureus ATCC 6538; 1.0 Uva/ml, t 12 min): 7.8 × 10^4 CFU/ml | Number of CFUs (S. aureus ATCC 6538; 1.0 Uva/ml, t 30 min): 7.4 × 10^4 CFU/ml | Number of CFUs (S. aureus ATCC 6538; 1.0 Uva/ml, t 60 min): 5.9 × 10^4 CFU/ml | Number of CFUs (S. aureus ATCC 6538; 1.0 Uva/ml, t 24 h): <100 CFU/ml | Number of CFUs (S. aureus ATCC 6538; 1.0 Uva/ml, t 48 h): <100 CFU/ml | Number of CFUs (S. aureus ATCC 6538; 1.0 Uva/ml, t 72 h): <100 CFU/ml | Number of CFUs (S. aureus ATCC 6538; 2.0 Uva/ml, t 0 min): 7.2 × 10^4 CFU/ml | Number of CFUs (S. aureus ATCC 6538; 2.0 Uva/ml, t 12 min): 5.9 × 10^4 CFU/ml | Number of CFUs (S. aureus ATCC 6538; 2.0 Uva/ml, t 30 min): 7.0 × 10^4 CFU/ml | Number of CFUs (S. aureus ATCC 6538; 2.0 Uva/ml, t 60 min): 7.0 × 10^4 CFU/ml | Number of CFUs (S. aureus ATCC 6538; 2.0 Uva/ml, t 24 h): <100 CFU/ml | Number of CFUs (S. aureus ATCC 6538; 2.0 Uva/ml, t 48 h): <100 CFU/ml | Number of CFUs (S. aureus ATCC 6538; 2.0 Uva/ml, t 72 h): <100 CFU/ml
